The values below come from PMC11306511, “Combining VPS34 inhibitors with STING agonists enhances type I interferon signaling and anti‐tumor efficacy” (Molecular Oncology, 2024).

Details of assay [1]: method as in PMID 34070756. Conditions: cited from earlier work.
Another assay relates to B16-F10 tumors. Description: Tumor growth inhibition study, B16-F10 tumor-bearing mice. The class given is in vivo, mouse. Conditions: B16-F10 in C57BL/6 mice; SB02024 20 mg·kg^−1 oral daily day 7-16; ADU-S100 10 μg intratumoral days 9, 11, 13, 15. An excerpt:
Study protocols were approved by the Institutional Animal Care and Use Committee of CrownBio in China (AN‐1903‐05‐313) or the LIH's animal welfare committee in Luxembourg (agreement LECR‐2018‐12). Mice were handled according to European Union guidelines, adhering to the principles of replacement, reduction, and refinement (3Rs). Animals were housed in appropriate accommodations conducive to their well‐being, with provisions for housing, feeding, and environmental enrichment to meet their physical and behavioral needs. Highly skilled personnel were involved in carrying out procedures related to the animal experiments to ensure proper care and handling. Female 6 to 8‐week‐old BALB/c (supplied by Shanghai Lingchang Biotechnology Co., Shanghai, China; n = 14) or C57BL/6 mice (supplied by Janvier Labs, Le Genest‐Saint‐Isle, France; n = 40) were injected into the right flank with 1 × 10^6 Renca or 0.2 × 10^6 B16‐F10 cells, respectively, resuspended in 100 μL PBS (day 0). When tumors were palpable (day 9 for Renca, day 7 for B16‐F10 tumors), mice were randomly assigned into two groups for the Renca model with n = 6 (vehicle) and n = 8 (SB02024) or four groups for the B16‐F10 model with n = 10. […] Tumor growth was measured using a caliper every other day and estimated as follows: volume (cm^3) = (width)^2 × length × 0.5.

Another assay concerns B16-F10 cells. Put plainly: IFN/cytokine gene expression (qRT-PCR) and secretion (MSD) in B16-F10 cells. In kind it is cell-based, murine. To be noted: 2 μM, 24 h, vs DMSO. The protocol: (§1) RNA was isolated using the PureLink kit (#12183018A; Thermo Fisher) and DNA‐binding columns (Rneasy plus kit, #74134; Qiagen) and/or Dnase treatment (#12185010; Thermo Fisher). After quantification using NanoDrop, 50 ng·μL^−1 RNA was used for cDNA synthesis with SuperScript IV VILO Master Mix (#11756050; Thermo Fisher). Quantitative RT‐PCR was run with diluted cDNA (1 : 25 or 1 : 12.5), PowerUp SYBR Green Master Mix (#A25741; Thermo Fisher), and 200 nM primers (see Table S3) on a CFX Connect RT‐PCR system (BioRad, Hercules, CA, USA). Data were analyzed using the ΔΔCT method.
(§2) Cell culture medium was centrifuged at 300 g for 10 min at 4 °C and supernatant stored at −80 °C. Mouse blood was collected at termination in K2‐EDTA tubes on ice, centrifuged at 1270 g for 10 min at 4 °C, and plasma was stored at −80 °C. Cytokine levels were quantified using Mesoscale Discovery (MSD) assays: human CCL5 (#F21ZN), CXCL10 (#K151UFK), IFNβ (#K151VIK); mouse CCL5 (#K152A2K) and CXCL10 (#K152UFK). Low concentrations of human IFNβ were determined using High‐Sensitivity IFNβ ELISA (#41415‐1; PBL Assay Science, Piscataway, NJ, USA). CCL5/CXCL10 levels in some experiments were quantified using R&D Systems (Minneapolis, MN, USA) ELISAs: human CCL5 (#DY278) or CXCL10 (#DY266); mouse CCL5 (#DY478).
For orientation: Real-time PCR tracks product formation cycle by cycle.

A further assay relates to Me30966 cells. Description: Gene expression (qRT-PCR) in Me30966 cells. The class given is cell-based, human. Conditions: 2 μM, 24 h, vs DMSO.
For another assay, the system named is A-498 cells. Description: IFN/cytokine gene expression (qRT-PCR) and secretion (MSD) in A-498 cells. In kind it is cell-based, human. To be noted: 2 μM, 24 h, vs DMSO. The procedure:
as §1, §2

Method for Me30966 cells: (A) IFNB1 gene expression quantified by qRT-PCR after 24h treatment with DMSO control or 2 µM of VPS34 inhibitor
(=VPS34i, SB02024 or SAR405) in Me30966 cells.

In the case of `Nc1ncnc2c1ncn2[C@@H]1O[C@@H]2COP(=O)([S-])O[C@@H]3[C@H](O)[C@@H](COP([O-])(=S)O[C@H]2[C@H]1O)O[C@H]3n1cnc2c(N)ncnc21.[Na+].[Na+]` (some centres unmarked) [ADU-S100, reference compound], the “anti-tumor efficacy in clinical trials” value in assay [1] is “only limited”. Further, the “% TGI (percent tumor growth inhibition compared to vehicle control)” value in the assay with B16-F10 tumors turned out to be 36%.
As to `C[C@@H]1COCCN1c1cc(=O)n2c(n1)N(Cc1cncc(Cl)c1)[C@H](C(F)(F)F)CC2` [SAR405, reference compound], the “transcription of IFNB1 and ISGs IRF1, IRF7, IRF9” value with B16-F10 cells and in the assay on A-498 cells was “significantly increased” each time. Also, the IFNB1 expression entry with Me30966 cells was “significantly increased”.
